# From article PMC10511816 (The Journal of Biological Chemistry, 2023)
# pKi: −log10 of the molar value.
# Experiments:
# [1] = molecular target: XOR; settings: read-out: Ki for the conversion of xanthine to uric acid; cited from earlier work
# [2] = molecular target: T1, XOR (Bos taurus, UniProt P80457); assay: XOR kinetics with phenazine methosulfate / cytochrome c reduction (550 nm); assay type: biochemical, bovine; settings: XOR, PMS
# T1 construct: Bovine milk was obtained from the animal farm of the Nippon Veterinary and Life Science University; from tissue; host or cells: bovine milk
# T1 sequence (P80457 whole entry): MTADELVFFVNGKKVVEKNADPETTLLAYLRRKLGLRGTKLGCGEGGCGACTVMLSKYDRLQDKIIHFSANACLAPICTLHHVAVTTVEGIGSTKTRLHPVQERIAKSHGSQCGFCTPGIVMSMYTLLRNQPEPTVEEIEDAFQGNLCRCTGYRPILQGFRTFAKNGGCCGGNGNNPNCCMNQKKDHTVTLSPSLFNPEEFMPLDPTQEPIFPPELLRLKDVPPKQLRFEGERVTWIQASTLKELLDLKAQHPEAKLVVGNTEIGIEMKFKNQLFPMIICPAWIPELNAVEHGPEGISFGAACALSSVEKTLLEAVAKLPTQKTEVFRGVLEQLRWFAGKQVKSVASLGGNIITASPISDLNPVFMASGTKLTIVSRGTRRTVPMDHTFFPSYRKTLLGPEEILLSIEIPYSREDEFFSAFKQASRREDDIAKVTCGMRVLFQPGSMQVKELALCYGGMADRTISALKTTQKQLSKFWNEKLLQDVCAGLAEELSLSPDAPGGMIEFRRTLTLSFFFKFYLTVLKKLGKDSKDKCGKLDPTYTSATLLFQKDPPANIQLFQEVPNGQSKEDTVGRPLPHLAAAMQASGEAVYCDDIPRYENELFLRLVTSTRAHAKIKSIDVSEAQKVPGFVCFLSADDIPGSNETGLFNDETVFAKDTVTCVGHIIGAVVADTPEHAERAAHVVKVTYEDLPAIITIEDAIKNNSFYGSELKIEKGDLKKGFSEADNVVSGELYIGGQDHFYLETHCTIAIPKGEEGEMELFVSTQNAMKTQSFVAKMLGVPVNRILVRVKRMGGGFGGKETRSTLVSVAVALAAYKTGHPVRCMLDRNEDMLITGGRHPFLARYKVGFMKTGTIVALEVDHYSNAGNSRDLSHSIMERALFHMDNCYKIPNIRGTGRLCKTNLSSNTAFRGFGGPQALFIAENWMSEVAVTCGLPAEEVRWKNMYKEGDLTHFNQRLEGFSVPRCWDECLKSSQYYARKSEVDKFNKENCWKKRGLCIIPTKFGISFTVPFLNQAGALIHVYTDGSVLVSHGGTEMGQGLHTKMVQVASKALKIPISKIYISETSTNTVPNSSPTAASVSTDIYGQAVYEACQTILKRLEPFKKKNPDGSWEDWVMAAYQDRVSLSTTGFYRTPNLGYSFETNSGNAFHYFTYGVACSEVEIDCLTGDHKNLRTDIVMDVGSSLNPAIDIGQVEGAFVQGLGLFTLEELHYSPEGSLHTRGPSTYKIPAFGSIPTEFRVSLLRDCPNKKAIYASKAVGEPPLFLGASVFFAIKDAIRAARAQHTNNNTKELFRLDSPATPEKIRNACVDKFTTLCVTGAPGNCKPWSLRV
# Experimental: Therefore, phenazine methosulfate was used to induce direct, rapid reoxidation of the molybdenum center ([22], [23]).
# Bovine milk was obtained from the animal farm of the Nippon Veterinary and Life Science University. […] The dehydrogenase form of the enzyme (XDH) was obtained by reacting XO immediately upon purification with 5 mM DTT at pH 8.5, 25 °C for 1 h. XO and XDH assays were carried out at 25 °C under aerobic conditions. […] A total of 500 μM β-NAD^+ was added to the same reaction solution for XDH activity. Physiological conditions such as pH 7.4 (0.1 M potassium phosphate buffer (KPB), 0.2 mM EDTA) and the addition of 50 μM β-NADH were also used. […] In addition, the enzyme reaction solution was quenched with perchloric acid and neutralized with K2CO3, with products analyzed using HPLC as described below. Spectrophotometric data were analyzed using UV-Probe software Ver. 2.70 or LabSolutions UV-Vis Ver. […] Kinetic parameters were determined from nonlinear curve fits of raw data using GraphPad Prism 9 software.
# A295 indicates the concentration of uric acid yielded by XOR. […] A295 indicates the concentration of uric acid yielded by XOR. Figure S2. The XOR inhibition mode of oxypurinol.A–G, Lineweaver-Burk plots were generated to visualize data and estimated the inhibition patterns. Data are representative of least two independent experiments. […] Figure S3. […] B, mode of inhibition of oxypurinol on the inosine degradation reaction of PNP. […] 0, 250, 375, 500, 750 and 1000 μM of oxypurinol were used. […] The rate of NAD^+ conversion to NADH was measured at A340 nm.
# [3] = molecular target: T2, Purine nucleoside phosphorylase (PNP) (Homo sapiens, UniProt P00491); parameters: method as in PMID 5653179, PMID 121041; settings: cited from earlier work
# T2 construct: purchased Sigma-Aldrich; host or cells: E. coli
# T2 sequence (P00491 1-289): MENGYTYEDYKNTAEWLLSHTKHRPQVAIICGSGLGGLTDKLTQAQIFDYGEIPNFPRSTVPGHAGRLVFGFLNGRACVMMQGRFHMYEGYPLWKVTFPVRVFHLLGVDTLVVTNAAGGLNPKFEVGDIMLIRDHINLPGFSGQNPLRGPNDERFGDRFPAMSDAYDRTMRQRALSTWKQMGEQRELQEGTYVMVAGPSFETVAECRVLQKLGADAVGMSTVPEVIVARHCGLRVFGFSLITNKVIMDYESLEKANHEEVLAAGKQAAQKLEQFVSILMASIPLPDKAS
compound,measurement,setting,value
COc1cc(-c2cnn3c(=O)nc[nH]c23)ccc1[S+]([O-])c1ccccc1 (stereo not shown) [BOF],pKi,[1],> 8.00
Cc1nc(-c2ccc(OCC(C)C)c(C#N)c2)sc1C(=O)O [Febuxostat],Types of inhibition,[2]; substrate hypoxanthine,Mixed
same,Types of inhibition,[2]; substrate xanthine,Mixed
O=c1ncnc2n([C@H]3O[C@@H](CO)[C@H](O)[C@@H]3O)[nH]cc1-2 [ribosyl derivative],pKi,[3],< 3.70
